Test results published in the supplement of paper PMC13207355.
Structures can show the parent of a compound that is named as a salt.

What was measured:
Conditions in all cases: exposure time: 72 h
E13 [1] = patient-derived glioblastoma stem cells of classical subtype; experiment: phenotypic distance (Euclidean, principal components) from DMSO controls (arbitrary units); higher = stronger morphological change
E28 [2] = patient-derived glioblastoma stem cells of classical subtype; experiment: as above
FT3469 [3] = normal neural stem cell line; experiment: as above
E57 [4] = patient-derived glioblastoma stem cells of mesenchymal subtype; experiment: as above
E34 [5] = patient-derived glioblastoma stem cells of proneural subtype; experiment: as above
E31 [6] = patient-derived glioblastoma stem cells of proneural subtype; experiment: as above
E21 [7] = patient-derived glioblastoma stem cells of mesenchymal subtype; experiment: as above
E13 [8] = experiment: surviving fraction (nuclei count normalised to DMSO); higher = more cells surviving (less toxic)
E28 [9] = experiment: as above
FT3469 [10] = experiment: as above
E57 [11] = experiment: as above
E34 [12] = experiment: as above
E31 [13] = experiment: as above
E21 [14] = experiment: as above
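Wherever phenotypic distance (Euclidean, principal components) from DMSO controls is given: cell Painting imaging in 384-well plates, CellProfiler features reduced to at least 20 principal components, Euclidean distance versus same-plate DMSO vehicle wells (0.1% v/v), median over six images per well.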
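Wherever surviving fraction (nuclei count normalised to DMSO) is given: nuclei counted by high-content imaging of Hoechst-stained cells in laminin-coated 384-well plates, relative to 0.1% DMSO vehicle wells, with staurosporine as cell-death control.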

Cc1ccc(S(=O)(=O)/C=C/C#N)cc1 [Bay 11-7082]
Conditions	phenotypic distance	surviving fraction
E13 [1], 4.1 nM	0.928	–
E13 [1], 12.3 nM	0.789	–
E13 [1], 37 nM	0.388	–
E13 [1], 111.1 nM	0.428	–
E13 [1], 333.3 nM	0.7	–
E13 [1], 1000 nM	2.5	–
E13 [1], 3000 nM	13.2	–
E13 [8], 4.1 nM	–	0.964
E13 [8], 12.3 nM	–	1.06
E13 [8], 37 nM	–	1.03
E13 [8], 111.1 nM	–	0.988
E13 [8], 333.3 nM	–	0.976
E13 [8], 1000 nM	–	0.692
E13 [8], 3000 nM	–	0.0324
E21 [7], 4.1 nM	0.363	–
E21 [7], 12.3 nM	0.689	–
E21 [7], 37 nM	0.461	–
E21 [7], 111.1 nM	0.482	–
E21 [7], 333.3 nM	0.803	–
E21 [7], 1000 nM	2.09	–
E21 [7], 3000 nM	18.7	–
E21 [14], 4.1 nM	–	1.01
E21 [14], 12.3 nM	–	1.06
E21 [14], 37 nM	–	0.902
E21 [14], 111.1 nM	–	1
E21 [14], 333.3 nM	–	0.952
E21 [14], 1000 nM	–	0.67
E21 [14], 3000 nM	–	0.000991
E28 [2], 4.1 nM	0.601	–
E28 [2], 12.3 nM	0.591	–
E28 [2], 37 nM	0.652	–
E28 [2], 111.1 nM	1.11	–
E28 [2], 333.3 nM	1.33	–
E28 [2], 1000 nM	1.83	–
E28 [2], 3000 nM	16.4	–
E28 [9], 4.1 nM	–	1.16
E28 [9], 12.3 nM	–	1.07
E28 [9], 37 nM	–	1.02
E28 [9], 111.1 nM	–	0.918
E28 [9], 333.3 nM	–	0.805
E28 [9], 1000 nM	–	0.523
E28 [9], 3000 nM	–	0.00427
E31 [6], 4.1 nM	0.798	–
E31 [6], 12.3 nM	0.511	–
E31 [6], 37 nM	0.513	–
E31 [6], 111.1 nM	0.736	–
E31 [6], 333.3 nM	0.957	–
E31 [6], 1000 nM	1.61	–
E31 [6], 3000 nM	15.2	–
E31 [13], 4.1 nM	–	0.981
E31 [13], 12.3 nM	–	1.12
E31 [13], 37 nM	–	1.07
E31 [13], 111.1 nM	–	0.915
E31 [13], 333.3 nM	–	0.833
E31 [13], 1000 nM	–	0.574
E31 [13], 3000 nM	–	0.00325
E34 [5], 4.1 nM	1.17	–
E34 [5], 12.3 nM	0.478	–
E34 [5], 37 nM	0.466	–
E34 [5], 111.1 nM	0.813	–
E34 [5], 333.3 nM	0.985	–
E34 [5], 1000 nM	0.91	–
E34 [5], 3000 nM	9.42	–
E34 [12], 4.1 nM	–	1.17
E34 [12], 12.3 nM	–	0.972
E34 [12], 37 nM	–	1.03
E34 [12], 111.1 nM	–	0.881
E34 [12], 333.3 nM	–	1.04
E34 [12], 1000 nM	–	0.841
E34 [12], 3000 nM	–	0.208
E57 [4], 4.1 nM	0.529	–
E57 [4], 12.3 nM	0.37	–
E57 [4], 37 nM	0.668	–
E57 [4], 111.1 nM	0.846	–
E57 [4], 333.3 nM	1.16	–
E57 [4], 1000 nM	2.8	–
E57 [4], 3000 nM	8.7	–
E57 [11], 4.1 nM	–	0.965
E57 [11], 12.3 nM	–	0.935
E57 [11], 37 nM	–	0.978
E57 [11], 111.1 nM	–	0.894
E57 [11], 333.3 nM	–	0.905
E57 [11], 1000 nM	–	0.712
E57 [11], 3000 nM	–	0.107
FT3469 [3], 4.1 nM	0.889	–
FT3469 [3], 12.3 nM	0.728	–
FT3469 [3], 37 nM	0.551	–
FT3469 [3], 111.1 nM	0.796	–
FT3469 [3], 333.3 nM	1.04	–
FT3469 [3], 1000 nM	2.13	–
FT3469 [3], 3000 nM	17.6	–
FT3469 [10], 4.1 nM	–	0.987
FT3469 [10], 12.3 nM	–	0.984
FT3469 [10], 37 nM	–	0.932
FT3469 [10], 111.1 nM	–	0.814
FT3469 [10], 333.3 nM	–	0.809
FT3469 [10], 1000 nM	–	0.714
FT3469 [10], 3000 nM	–	0.0259

CN[C@@H]1[C@@H](O)[C@@H](O[C@@H]2[C@@H](O)[C@H](O[C@H]3OC(CN)=CC[C@H]3N)[C@@H](N)C[C@H]2N)OC[C@]1(C)O [Sisomicin sulfate]
Conditions	phenotypic distance	surviving fraction
E13 [1], 4.1 nM	0.369	–
E13 [1], 12.3 nM	0.462	–
E13 [1], 37 nM	0.472	–
E13 [1], 111.1 nM	0.486	–
E13 [1], 333.3 nM	0.393	–
E13 [1], 1000 nM	0.501	–
E13 [1], 3000 nM	0.645	–
E13 [8], 4.1 nM	–	1.01
E13 [8], 12.3 nM	–	0.994
E13 [8], 37 nM	–	0.923
E13 [8], 111.1 nM	–	0.949
E13 [8], 333.3 nM	–	0.983
E13 [8], 1000 nM	–	1.1
E13 [8], 3000 nM	–	0.959
E21 [7], 4.1 nM	0.673	–
E21 [7], 12.3 nM	0.75	–
E21 [7], 37 nM	0.611	–
E21 [7], 111.1 nM	0.334	–
E21 [7], 333.3 nM	0.705	–
E21 [7], 1000 nM	0.424	–
E21 [7], 3000 nM	1.26	–
E21 [14], 4.1 nM	–	0.929
E21 [14], 12.3 nM	–	1.06
E21 [14], 37 nM	–	0.919
E21 [14], 111.1 nM	–	0.966
E21 [14], 333.3 nM	–	1.03
E21 [14], 1000 nM	–	0.992
E21 [14], 3000 nM	–	0.864
E28 [2], 4.1 nM	0.802	–
E28 [2], 12.3 nM	0.276	–
E28 [2], 37 nM	0.807	–
E28 [2], 111.1 nM	0.454	–
E28 [2], 333.3 nM	0.891	–
E28 [2], 1000 nM	0.259	–
E28 [2], 3000 nM	0.736	–
E28 [9], 4.1 nM	–	0.849
E28 [9], 12.3 nM	–	0.982
E28 [9], 37 nM	–	0.892
E28 [9], 111.1 nM	–	0.985
E28 [9], 333.3 nM	–	0.937
E28 [9], 1000 nM	–	0.984
E28 [9], 3000 nM	–	0.902
E31 [6], 4.1 nM	0.521	–
E31 [6], 12.3 nM	0.711	–
E31 [6], 37 nM	0.705	–
E31 [6], 111.1 nM	0.391	–
E31 [6], 333.3 nM	0.642	–
E31 [6], 1000 nM	0.692	–
E31 [6], 3000 nM	0.63	–
E31 [13], 4.1 nM	–	0.953
E31 [13], 12.3 nM	–	0.893
E31 [13], 37 nM	–	0.996
E31 [13], 111.1 nM	–	0.985
E31 [13], 333.3 nM	–	0.92
E31 [13], 1000 nM	–	0.979
E31 [13], 3000 nM	–	0.914
E34 [5], 4.1 nM	1.06	–
E34 [5], 12.3 nM	0.852	–
E34 [5], 37 nM	0.946	–
E34 [5], 111.1 nM	0.273	–
E34 [5], 333.3 nM	2.48	–
E34 [5], 1000 nM	3.23	–
E34 [5], 3000 nM	0.712	–
E34 [12], 4.1 nM	–	0.838
E34 [12], 12.3 nM	–	0.957
E34 [12], 37 nM	–	0.811
E34 [12], 111.1 nM	–	0.957
E34 [12], 333.3 nM	–	0.867
E34 [12], 1000 nM	–	0.88
E34 [12], 3000 nM	–	0.901
E57 [4], 4.1 nM	0.637	–
E57 [4], 12.3 nM	0.658	–
E57 [4], 37 nM	0.794	–
E57 [4], 111.1 nM	0.322	–
E57 [4], 333.3 nM	0.595	–
E57 [4], 1000 nM	0.802	–
E57 [4], 3000 nM	0.686	–
E57 [11], 4.1 nM	–	0.973
E57 [11], 12.3 nM	–	0.964
E57 [11], 37 nM	–	0.884
E57 [11], 111.1 nM	–	0.95
E57 [11], 333.3 nM	–	0.927
E57 [11], 1000 nM	–	0.919
E57 [11], 3000 nM	–	0.966
FT3469 [3], 4.1 nM	0.895	–
FT3469 [3], 12.3 nM	0.713	–
FT3469 [3], 37 nM	0.549	–
FT3469 [3], 111.1 nM	0.66	–
FT3469 [3], 333.3 nM	0.495	–
FT3469 [3], 1000 nM	0.637	–
FT3469 [3], 3000 nM	0.793	–
FT3469 [10], 4.1 nM	–	0.936
FT3469 [10], 12.3 nM	–	1.08
FT3469 [10], 37 nM	–	1.04
FT3469 [10], 111.1 nM	–	0.924
FT3469 [10], 333.3 nM	–	1.08
FT3469 [10], 1000 nM	–	1.08
FT3469 [10], 3000 nM	–	1.02
